According to ChEMBL document CHEMBL5137082, “Discovery of a Novel Vascular Disrupting Agent Inhibiting Tubulin Polymerization and HDACs with Potent Antitumor Effects” (J Med Chem, 2022):
Activity calls are given as the source filed them. The rule behind the calls is not given here.

Assays:
HepG2 [1] = test: Induction of apoptosis in human HepG2 cells assessed as early apoptotic cells at 7.5 nM incubated for 48 hrs by Annexin-V/PI-staining based flow cytometry (reference value: 4.61 +/- 0.46%); type: functional
MDA-MB-231 = test: Inhibition of cell migration in human MDA-MB-231 cells measured after 48 hrs by crystal violet staining based transwell assay; type: functional; conditions: dose 7.5-30 nM, DDE = dose-dependent effect
[2] = molecular target: T1, Protein deacetylase HDAC6 (Homo sapiens, UniProt Q9UBN7); test: Inhibition of HDAC6 in human HeLa cells using BOC-K(Ac)-AMC as substrate measured after 30 mins by fluorescence based microtiter plate reader assay; type: cell-based
T1 sequence (Q9UBN7 whole entry): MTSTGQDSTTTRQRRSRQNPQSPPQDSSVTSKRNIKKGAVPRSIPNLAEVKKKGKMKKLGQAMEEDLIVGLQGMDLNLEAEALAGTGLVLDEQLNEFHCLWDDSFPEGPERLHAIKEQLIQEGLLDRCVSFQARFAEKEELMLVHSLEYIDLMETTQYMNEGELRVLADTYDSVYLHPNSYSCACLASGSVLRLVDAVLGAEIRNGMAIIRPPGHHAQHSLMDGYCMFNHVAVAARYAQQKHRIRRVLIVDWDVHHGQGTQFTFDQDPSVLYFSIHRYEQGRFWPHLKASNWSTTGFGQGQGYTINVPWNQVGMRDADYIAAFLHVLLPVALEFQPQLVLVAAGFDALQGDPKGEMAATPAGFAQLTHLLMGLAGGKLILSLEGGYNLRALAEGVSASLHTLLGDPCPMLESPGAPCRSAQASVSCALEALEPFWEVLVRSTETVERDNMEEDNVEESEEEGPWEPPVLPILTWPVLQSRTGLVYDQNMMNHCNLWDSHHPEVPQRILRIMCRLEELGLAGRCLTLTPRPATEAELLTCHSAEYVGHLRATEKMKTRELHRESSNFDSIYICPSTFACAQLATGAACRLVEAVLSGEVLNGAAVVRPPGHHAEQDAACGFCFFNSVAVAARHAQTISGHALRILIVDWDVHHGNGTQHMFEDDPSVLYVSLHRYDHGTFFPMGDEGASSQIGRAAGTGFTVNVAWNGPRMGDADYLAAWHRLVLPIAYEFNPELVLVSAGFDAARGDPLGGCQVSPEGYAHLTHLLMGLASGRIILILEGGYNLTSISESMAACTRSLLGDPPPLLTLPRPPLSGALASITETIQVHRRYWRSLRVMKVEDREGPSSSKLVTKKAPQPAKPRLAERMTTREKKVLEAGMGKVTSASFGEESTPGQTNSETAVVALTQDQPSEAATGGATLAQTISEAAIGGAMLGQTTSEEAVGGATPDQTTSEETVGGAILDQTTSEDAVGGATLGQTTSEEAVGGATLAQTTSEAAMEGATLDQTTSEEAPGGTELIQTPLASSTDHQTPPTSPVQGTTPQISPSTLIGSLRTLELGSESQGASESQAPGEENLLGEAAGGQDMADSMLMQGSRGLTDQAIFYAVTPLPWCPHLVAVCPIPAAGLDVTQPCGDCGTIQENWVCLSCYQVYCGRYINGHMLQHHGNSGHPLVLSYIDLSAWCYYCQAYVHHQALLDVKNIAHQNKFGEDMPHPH

PC-3 [3] = test: Induction of apoptosis in human PC-3 cells assessed as mitochondrial membrane potential loss by measuring decrease in red fluorescence at 15 nM incubated for 48 hrs by JC1 staining based flow cytometry analysis (reference value: 93.48 +/- 0.15%); type: functional; design: scale not given: the % may be the effect or the level left
[4] = Cardiotoxicity in ICR mouse allografted with mouse H22 cells assessed as effect on P wave at 20 mg/kg, iv administered qd measured after 21 days by ECG analysis; type: toxicity, organism-based; conditions: in vivo, 504 h, time 21 day
H22 [5] = test: Antitumor activity against mouse H22 cells allografted in ICR mouse assessed as reduction in tumor weight at 20 mg/kg, iv administered qd measured after 21 days; type: functional; design: scale not given: the % may be the effect or the level left; conditions: time 21 day
PC-3 [6] = test: Induction of apoptosis in human PC-3 cells assessed as mitochondrial membrane potential loss by measuring decrease in red fluorescence at 30 nM incubated for 48 hrs by JC1 staining based flow cytometry analysis (reference value: 93.48 +/- 0.15%); type: functional; design: scale not given: the % may be the effect or the level left
HepG2 [7] = test: Induction of G2/M phase cell cycle arrest in human HepG2 cells assessed as decrease in Cdc25c protein expression at 7.5 to 30 nM measured after 24 hrs by western blot analysis; type: functional, cell-based; conditions: dose 7.5-30 nM
HepG2 [8] = test: Induction of apoptosis in human HepG2 cells assessed as downregulation of Bcl-xL protein expression measured after 24 hrs by Western blot analysis; type: functional, cell-based; conditions: dose 7.5-30 nM, DDE = dose-dependent effect
HepG2 [9] = test: Induction of apoptosis in human HepG2 cells assessed as necrotic cells at 15 nM incubated for 48 hrs by Annexin-V/PI-staining based flow cytometry (reference value: 1.43 +/- 0.26%); type: functional
[10] = Toxicity in ICR mouse allografted with mouse H22 cells assessed as systolic blood pressure at 20 mg/kg, iv administered qd measured after 21 days; type: organism-based; conditions: in vivo, 504 h, time 21 day
[11] = Toxicity in ICR mouse allografted with mouse H22 cells assessed as effect on body weight at 20 mg/kg, iv administered qd measured after 21 days; type: organism-based; conditions: in vivo, 504 h, time 21 day
HepG2 [12] = test: Induction of cell cycle arrest in human HepG2 cells assessed as accumulation G2 phase at 15 nM incubated for 48 hrs by propidium iodide staining based flow cytometry analysis (reference value: 23.55 +/- 0.29%); type: functional
Histone deacetylase 3 = Histone deacetylase 3 (Homo sapiens, UniProt O15379); test: Inhibition of HDAC3 in human HepG2 cells assessed as increase in level of acetyl histone H3substrate incubated for 24 hrs by chemiluminescence based Western blotting analysis; type: cell-based; conditions: dose 0.03-0.3 µM
Histone deacetylase 3, sequence (O15379 whole entry): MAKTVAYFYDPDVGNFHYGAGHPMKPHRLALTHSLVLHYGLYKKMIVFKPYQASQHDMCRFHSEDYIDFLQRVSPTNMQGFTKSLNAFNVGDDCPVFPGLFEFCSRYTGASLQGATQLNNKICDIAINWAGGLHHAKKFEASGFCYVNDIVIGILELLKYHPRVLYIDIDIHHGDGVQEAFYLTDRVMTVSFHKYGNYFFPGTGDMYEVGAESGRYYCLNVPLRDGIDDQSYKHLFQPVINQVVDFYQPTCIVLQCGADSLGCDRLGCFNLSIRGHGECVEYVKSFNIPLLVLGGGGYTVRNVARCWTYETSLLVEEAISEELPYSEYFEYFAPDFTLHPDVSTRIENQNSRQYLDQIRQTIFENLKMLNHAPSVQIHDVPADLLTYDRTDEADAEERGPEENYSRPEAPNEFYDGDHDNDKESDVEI

HepG2 [13] = test: Induction of G2/M phase cell cycle arrest in human HepG2 cells assessed as decrease in Cdc2 protein expression at 7.5 to 30 nM measured after 24 hrs by western blot analysis; type: functional, cell-based; conditions: dose 7.5-30 nM
HepG2 [14] = test: Induction of G2/M phase cell cycle arrest in human HepG2 cells assessed as decrease in cyclin B1 protein expression at 7.5 to 30 nM measured after 24 hrs by western blot analysis; type: functional, cell-based; conditions: dose 7.5-30 nM
H22 [15] = test: Antitumor activity against mouse H22 cells allografted in ICR mouse assessed as inhibition of tumor growth at 20 mg/kg, iv administered qd for 21 days measured after 12 days; type: functional, organism-based; conditions: time 21.0 day
[16] = Toxicity in ICR mouse allografted with mouse H22 cells assessed as pathological changes in spleen at 20 mg/kg, iv administered qd measured after 21 days by H and E staining based analysis; type: organism-based; conditions: in vivo, 504 h, time 21 day
H22 [17] = test: Antivascular activity against mouse H22 cells allografted in ICR mouse assessed as inhibition of blood vessel formation at 20 mg/kg, iv administered qd measured after 21 days by immunohistochemistry analysis; type: functional, organism-based; conditions: time 21.0 day
HepG2 [18] = test: Induction of apoptosis in human HepG2 cells assessed as necrotic cells at 7.5 nM incubated for 48 hrs by Annexin-V/PI-staining based flow cytometry (reference value: 1.43 +/- 0.26%); type: functional

- IC50 [2]: 138 nM
- inhibition (Histone deacetylase 3): Active
SMILES: COc1ccc(CNC(=O)c2cc(F)ccc2N2CCOCC2)cc1/C=C/C(=O)NO
- Activity (HepG2 [1]): 20.15%
- inhibition (MDA-MB-231): Dde
- Activity (PC-3 [3]): 61.56%
- Activity [4]: Non-Toxic
- Activity (H22 [5]): 83%
- Activity (PC-3 [6]): 49.39%
- Activity (HepG2 [7]): Active
- Activity (HepG2 [8]): Dde
- Activity (HepG2 [9]): 1.13%
- Activity [10]: Non-Toxic
- Activity [11]: Non-Toxic
- Activity (HepG2 [12]): 26.97%
- Activity (HepG2 [13]): Active
- Activity (HepG2 [14]): Active
- Activity (H22 [15]): Active
- Activity [16]: Non-Toxic
- Activity (H22 [17]): Active
- Activity (HepG2 [18]): 1.33%
